# Values of other authors, collected in publication PMC4594385 (Journal of Medical Physics / Association of Medical …, 2015).
# Conditions: compared with femur uptake at 4 h; ref Banerjee et al. [1]
compound,measurement,value
O=P([O-])(O)CN(CCN(CP(=O)([O-])O)CP(=O)(O)O)CP(=O)([O-])O.[153Sm+3] [^153Sm-EDTMP],Bone uptake,3.72 %ID/g
